Assay results as given in the supplement of paper PMC10307832.

What was measured:
Experiment in all cases: relative viability (nuclei count vs DMSO), 5 days (fraction); higher = more cells survive
[1] = compound: CCn1c(-c2nonc2N)nc2c(C#CC(C)(C)O)ncc(OC[C@H]3CCCNC3)c21 + COc1cc2c(Oc3ccc(NC(=O)C4(C(=O)Nc5ccc(F)cc5)CC4)cc3F)ccnc2cc1OCCCN1CCOCC1 [Foretinib] (partner 0.25 µM)
How it was run: (§1)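 Each reported value is a median over duplicate plates. It expresses relative viability: treated-well nuclei count divided by vehicle-well nuclei count. Lung cancer cell lines in 1536-well plates were dosed by pin tool a day after seeding, alone with one drug or with a fixed anchor-drug dose plus five library-drug doses (not always all listed) in √10 steps, and nuclei were counted after 5 days.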

BAM7 + Dasatinib = compound: CCOC1=CC=CC=C1N=NC2=C(NN(C2=O)C3=NC(=CS3)C4=CC=CC=C4)C [BAM7] + Cc1nc(Nc2ncc(C(=O)Nc3c(C)cccc3Cl)s2)cc(N2CCN(CCO)CC2)n1 [Dasatinib] (partner 0.075 µM)
How it was run: as §1

BAM7 + Bortezomib = compound: CCOC1=CC=CC=C1N=NC2=C(NN(C2=O)C3=NC(=CS3)C4=CC=CC=C4)C [BAM7] + CC(C)C[C@H](NC(=O)[C@H](Cc1ccccc1)NC(=O)c1cnccn1)B(O)O [Bortezomib] (partner 0.002 µM)
How it was run: as §1

[2] = compound: CCn1c(-c2nonc2N)nc2c(C#CC(C)(C)O)ncc(OC[C@H]3CCCNC3)c21 + CC(=O)Nc1cccc(-n2c(=O)n(C3CC3)c(=O)c3c(Nc4ccc(I)cc4F)n(C)c(=O)c(C)c32)c1 [Trametinib] (partner 0.02 µM)
How it was run: as §1

Cell Line	relative viability ([1]; first compound 0.01 µM)	relative viability ([1]; first compound 0.03162 µM)	relative viability ([1]; first compound 0.1 µM)	relative viability ([1]; first compound 0.3162 µM)	relative viability ([1]; first compound 1 µM)	relative viability (BAM7 + Dasatinib; first compound 0.5 µM)	relative viability (BAM7 + Dasatinib; first compound 5 µM)	relative viability (BAM7 + Dasatinib; first compound 15.81 µM)	relative viability (BAM7 + Dasatinib; first compound 50 µM)	relative viability (BAM7 + Bortezomib; first compound 0.5 µM)	relative viability (BAM7 + Bortezomib; first compound 5 µM)	relative viability (BAM7 + Bortezomib; first compound 50 µM)	relative viability ([2]; first compound 0.01 µM)	relative viability ([2]; first compound 0.03162 µM)	relative viability ([2]; first compound 0.1 µM)	relative viability ([2]; first compound 0.3162 µM)	relative viability ([2]; first compound 1 µM)	relative viability (BAM7 + Bortezomib; first compound 15.81 µM)
NCI-H1975	0.983	1.04	0.937	0.95	0.885	0.309	0.341	0.3	0.296	0.356	0.379	0.386	0.359	0.393	0.452	0.281	0.21	–
CAL-12T	1.15	1.05	1.05	1.05	1.07	0.507	0.326	0.402	0.337	0.986	0.97	1.09	0.303	0.388	0.322	0.317	0.297	1
NCI-H1623	0.855	0.849	0.793	0.882	0.676	0.576	0.56	0.573	0.641	–	–	–	–	–	–	–	–	–
HCC-44	–	–	–	–	–	–	–	–	–	1.01	0.921	0.838	1.03	0.98	1.09	1.07	1.05	0.879
EKVX	0.85	0.809	0.723	0.797	0.75	0.604	0.586	0.31	0.41	1.2	1.15	0.986	0.394	0.385	0.347	0.377	0.34	0.758
NCI-H1651	0.865	0.807	0.743	0.521	0.779	0.297	0.372	0.477	0.456	0.992	0.917	0.926	0.83	0.82	0.811	0.783	0.841	0.988
NCI-H1944	0.755	0.888	0.821	0.851	0.876	0.217	0.234	0.225	0.279	–	–	–	0.452	0.449	0.393	0.355	0.401	–
NCI-H1703	0.333	0.313	0.347	0.248	0.356	–	–	–	–	0.428	0.304	0.338	–	–	–	–	–	0.164
Calu-6	0.85	0.86	0.866	0.824	0.942	–	–	–	–	0.969	0.986	1.01	–	–	–	–	–	0.94
EBC-1	0.106	0.0912	0.0934	0.102	0.0999	–	–	–	–	0.497	0.503	0.574	–	–	–	–	–	0.531
